Ends that are not written are not given here.

The target of experiment [1] is T1, Ca2/CaM12’ (Xenopus laevis, UniProt P0DP33, D21A/D23A/D25A/D57A/D59A/E32Q/E68Q/N61A).
T1 construct: made in house; host or cells: E. coli BL21(DE3) Codon Plus, pET11d
In words: ITC of Ca2/CaM12’ binding to IQ peptides. As to conditions: 27 °C; for n-value (stoichiometry) / ΔH: SD from three independent trials.

Experiment [2] addresses fluorescein-labeled CaV1.2 IQ peptide Y1657D (rat). In words: fluorescence polarisation; fluorescein-labeled peptide (100 nM) titrated with apoCaM in Ca2+-free buffer: 20 mM Tris, pH 7.4, 100 mM KCl, 1 mM MgCl2, 2.0 mM EGTA.

Regarding `CC[C@H](C)[C@H](NC(=O)[C@H](CC(C)C)NC(=O)[C@H](Cc1ccccc1)NC(=O)[C@@H](NC(=O)[C@H](C)NC(=O)[C@H](Cc1ccc(O)cc1)NC(=O)[C@H](Cc1ccccc1)NC(=O)[C@H](CCCCN)NC(=O)CNC(=O)[C@@H](NC(=O)[C@@H](N)[C@@H](C)O)C(C)C)[C@@H](C)O)C(=O)N[C@@H](CCC(N)=O)C(=O)N[C@@H](CCC(=O)O)C(=O)N[C@@H](Cc1ccc(O)cc1)C(=O)N[C@@H](CC(=O)O)C(=O)N[C@@H](CCCNC(=N)N)C(=O)N[C@@H](CCCCN)C(=O)N[C@@H](Cc1ccccc1)C(=O)N[C@@H](CCCCN)C(=O)N[C@@H](CCCCN)C(=O)N[C@@H](CCCNC(=N)N)C(=O)O` [IQ^F1658D], in experiment [1], the “binding to Ca2/CaM12’ compared to IQ^WT” value is “weaker binding”, the “n-value (stoichiometry)” value amounted to 0.8 ± 0.5 and the ΔH was -5.9 ± 0.7 kcal/mol.
As to `CC(C)C[C@H](NC(=O)[C@H](Cc1ccccc1)NC(=O)[C@@H](NC(=O)[C@H](C)NC(=O)[C@H](Cc1ccc(O)cc1)NC(=O)[C@H](Cc1ccccc1)NC(=O)[C@H](CCCCN)NC(=O)CNC(=O)[C@@H](NC(=O)[C@@H](N)[C@@H](C)O)C(C)C)[C@@H](C)O)C(=O)N[C@@H](C)C(=O)N[C@@H](CCC(N)=O)C(=O)N[C@@H](CCC(=O)O)C(=O)N[C@@H](Cc1ccc(O)cc1)C(=O)N[C@@H](Cc1ccccc1)C(=O)N[C@@H](CCCNC(=N)N)C(=O)N[C@@H](CCCCN)C(=O)N[C@@H](Cc1ccccc1)C(=O)N[C@@H](CCCCN)C(=O)N[C@@H](CCCCN)C(=O)N[C@@H](CCCNC(=N)N)C(=O)O` [IQ^I1654A], the “binding to Ca2/CaM12’ compared to IQ^WT” value in experiment [1] is “weaker binding”.
Turning to `CC[C@H](C)[C@H](NC(=O)[C@H](CC(C)C)NC(=O)[C@H](Cc1ccccc1)NC(=O)[C@@H](NC(=O)[C@H](C)NC(=O)[C@H](C)NC(=O)[C@H](Cc1ccccc1)NC(=O)[C@H](CCCCN)NC(=O)CNC(=O)[C@@H](NC(=O)[C@@H](N)[C@@H](C)O)C(C)C)[C@@H](C)O)C(=O)N[C@@H](CCC(N)=O)C(=O)N[C@@H](CCC(=O)O)C(=O)N[C@@H](Cc1ccc(O)cc1)C(=O)N[C@@H](Cc1ccccc1)C(=O)N[C@@H](CCCNC(=N)N)C(=O)N[C@@H](CCCCN)C(=O)N[C@@H](Cc1ccccc1)C(=O)N[C@@H](CCCCN)C(=O)N[C@@H](CCCCN)C(=O)N[C@@H](CCCNC(=N)N)C(=O)O` [IQ^Y1649A], in experiment [1], the “binding to Ca2/CaM12’ compared to IQ^WT” value is listed as “weaker binding”, the “n-value (stoichiometry)” value came to 0.88 ± 0.25 and the ΔH is -9.7 ± 0.2 kcal/mol.
With `CC[C@H](C)[C@H](NC(=O)[C@H](CC(C)C)NC(=O)[C@H](Cc1ccccc1)NC(=O)[C@@H](NC(=O)[C@H](C)NC(=O)[C@H](Cc1ccc(O)cc1)NC(=O)[C@H](Cc1ccccc1)NC(=O)[C@H](CCCCN)NC(=O)CNC(=O)[C@@H](NC(=O)[C@@H](N)[C@@H](C)O)C(C)C)[C@@H](C)O)C(=O)N[C@@H](CCC(N)=O)C(=O)N[C@@H](CCC(=O)O)C(=O)N[C@@H](CC(=O)O)C(=O)N[C@@H](Cc1ccccc1)C(=O)N[C@@H](CCCNC(=N)N)C(=O)N[C@@H](CCCCN)C(=O)N[C@@H](Cc1ccccc1)C(=O)N[C@@H](CCCCN)C(=O)N[C@@H](CCCCN)C(=O)N[C@@H](CCCNC(=N)N)C(=O)O` [IQ^Y1657D], the “binding to Ca2/CaM12’ compared to IQ^WT” value in experiment [1] is on record as “weaker binding”.
Take TVGKFYATFLIQEYARKFKKR [IQ^F1658A]: in experiment [1], the “n-value (stoichiometry)” value stood at 1.0 ± 0.25 and the ΔH was -9.5 ± 0.2 kcal/mol.
In the case of “apoCaM (Ca2+-free calmodulin) (from UniProt P0DP33 1-149) (natural protein)”, the Kd in experiment [2] is 60 µM.

Values taken from article PMC9764201, “Half-calcified calmodulin promotes basal activity and inactivation of the L-type calcium channel CaV1.2” (The Journal of Biological Chemistry, 2022).
